{"source": "paper PMC10029980", "about": "(Journal of medicinal chemistry, 2022)", "key": {"[1]": {"biological_target": "human recombinant PAK1 (kinase domain) (Homo sapiens, UniProt Q13153)", "sequence (Q13153 270-521 limits assumed)": "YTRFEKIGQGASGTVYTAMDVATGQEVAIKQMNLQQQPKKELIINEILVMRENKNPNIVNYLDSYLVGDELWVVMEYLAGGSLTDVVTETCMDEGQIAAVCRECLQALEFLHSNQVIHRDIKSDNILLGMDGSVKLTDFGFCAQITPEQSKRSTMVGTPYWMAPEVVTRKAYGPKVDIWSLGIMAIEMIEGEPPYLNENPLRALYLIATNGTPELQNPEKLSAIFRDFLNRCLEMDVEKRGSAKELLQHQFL", "test": "Z'-LYTE FRET kinase assay, PAK1 inhibition", "type": "biochemical", "settings": "for PAK1 inhibitory activity and selectivity of NVS-PAK1-1 conjugates: tested for PAK1, PAK2 and PAK4 inhibition (Table S1)"}, "[2]": {"biological_target": "T1, PAK1 (Homo sapiens, UniProt Q13153)", "T1 sequence (Q13153 whole entry)": "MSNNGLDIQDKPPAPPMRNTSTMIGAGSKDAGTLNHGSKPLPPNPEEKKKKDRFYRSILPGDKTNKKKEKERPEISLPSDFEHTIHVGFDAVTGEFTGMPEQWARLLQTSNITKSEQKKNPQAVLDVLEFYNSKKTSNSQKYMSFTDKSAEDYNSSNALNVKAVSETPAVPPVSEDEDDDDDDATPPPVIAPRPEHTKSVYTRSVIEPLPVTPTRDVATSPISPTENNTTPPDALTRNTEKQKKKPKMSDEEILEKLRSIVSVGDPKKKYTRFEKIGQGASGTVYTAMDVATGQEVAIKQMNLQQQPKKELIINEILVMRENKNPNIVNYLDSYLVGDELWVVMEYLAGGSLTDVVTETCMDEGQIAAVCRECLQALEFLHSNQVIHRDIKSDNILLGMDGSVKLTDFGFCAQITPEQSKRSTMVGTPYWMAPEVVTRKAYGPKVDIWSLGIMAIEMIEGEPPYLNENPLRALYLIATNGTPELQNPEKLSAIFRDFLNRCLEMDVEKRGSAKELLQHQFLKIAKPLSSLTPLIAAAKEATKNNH", "test": "PAK1 degradation in Panc1 cells", "type": "cell-based", "settings": "compared with BJG-05-014 and BJG-05-027, Figure S2"}, "[3]": {"test_system": "MOLT4 cells proteome", "test": "Global multiplexed mass spectrometry proteomics in MOLT4 cells", "type": "cell-based, human", "settings": "1 µM, 5 hr"}, "[4]": {"test_system": "OMM1 cells", "test": "MTT cell proliferation, OMM1", "type": "cell-based", "settings": "MTT assay, 96 hr, PAK2-dependent cells"}, "[5]": {"test_system": "OVCAR3 cells", "test": "MTT cell proliferation, OVCAR3", "type": "cell-based", "settings": "for EC50: Homo sapiens, OVCAR-3, 96 h, read-out: EC50 anti-proliferative, OVCAR3"}, "[6]": {"biological_target": "human recombinant PAK2 (full length) (Homo sapiens, UniProt Q13177)", "sequence (Q13177 whole entry)": "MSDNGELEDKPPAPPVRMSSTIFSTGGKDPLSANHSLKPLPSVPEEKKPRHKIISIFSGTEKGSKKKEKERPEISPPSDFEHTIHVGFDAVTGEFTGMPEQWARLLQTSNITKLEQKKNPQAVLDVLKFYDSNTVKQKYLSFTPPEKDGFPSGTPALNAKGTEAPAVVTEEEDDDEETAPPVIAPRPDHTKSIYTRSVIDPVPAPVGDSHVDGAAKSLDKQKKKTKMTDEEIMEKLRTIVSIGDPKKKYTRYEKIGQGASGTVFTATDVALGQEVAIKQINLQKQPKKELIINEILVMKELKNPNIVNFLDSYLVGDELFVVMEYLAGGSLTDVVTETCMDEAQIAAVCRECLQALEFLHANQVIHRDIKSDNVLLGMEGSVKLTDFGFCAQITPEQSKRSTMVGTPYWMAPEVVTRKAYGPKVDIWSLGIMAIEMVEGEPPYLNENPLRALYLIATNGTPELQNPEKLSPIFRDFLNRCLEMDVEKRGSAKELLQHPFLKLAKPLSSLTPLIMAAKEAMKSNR", "test": "Z'-LYTE FRET kinase assay, PAK2 inhibition", "type": "biochemical"}, "[7]": {"test_system": "MCF7 cells", "test": "MTT cell proliferation, MCF7", "type": "cell-based", "settings": "for EC50: Homo sapiens, MCF7, 96 h, read-out: EC50 anti-proliferative, MCF7"}, "[8]": {"test_system": "phosphorylation of MEK1 at S298 and of ERK", "test": "MEK and ERK phosphorylation by immunoblot in OVCAR3 and MCF7 cells", "type": "cell-based", "settings": "10 nM, 24 hr"}, "[9]": {"test_system": "HEY-A8 cells", "test": "MTT cell proliferation, HEY-A8", "type": "cell-based", "settings": "MTT assay, 96 hr, PAK2-dependent cells"}, "[10]": {"biological_target": "Nluc-PAK1 (Homo sapiens, UniProt Q13153+Q96SW2)", "sequence (Q13153 whole entry)": "as the sequence (Q13153 whole entry) above", "sequence (Q96SW2 whole entry)": "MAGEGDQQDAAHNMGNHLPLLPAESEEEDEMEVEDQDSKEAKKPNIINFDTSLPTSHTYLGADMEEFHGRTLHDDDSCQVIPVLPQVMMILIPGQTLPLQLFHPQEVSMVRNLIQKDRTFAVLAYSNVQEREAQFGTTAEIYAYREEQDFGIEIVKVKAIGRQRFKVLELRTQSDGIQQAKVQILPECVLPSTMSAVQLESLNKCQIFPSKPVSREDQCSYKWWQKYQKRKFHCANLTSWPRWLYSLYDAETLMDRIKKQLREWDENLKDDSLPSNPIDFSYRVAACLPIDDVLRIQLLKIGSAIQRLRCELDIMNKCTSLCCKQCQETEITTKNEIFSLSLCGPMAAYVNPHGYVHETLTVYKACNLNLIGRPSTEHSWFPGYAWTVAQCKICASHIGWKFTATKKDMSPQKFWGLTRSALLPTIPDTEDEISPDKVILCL", "sequence (Q16531 whole entry partner)": "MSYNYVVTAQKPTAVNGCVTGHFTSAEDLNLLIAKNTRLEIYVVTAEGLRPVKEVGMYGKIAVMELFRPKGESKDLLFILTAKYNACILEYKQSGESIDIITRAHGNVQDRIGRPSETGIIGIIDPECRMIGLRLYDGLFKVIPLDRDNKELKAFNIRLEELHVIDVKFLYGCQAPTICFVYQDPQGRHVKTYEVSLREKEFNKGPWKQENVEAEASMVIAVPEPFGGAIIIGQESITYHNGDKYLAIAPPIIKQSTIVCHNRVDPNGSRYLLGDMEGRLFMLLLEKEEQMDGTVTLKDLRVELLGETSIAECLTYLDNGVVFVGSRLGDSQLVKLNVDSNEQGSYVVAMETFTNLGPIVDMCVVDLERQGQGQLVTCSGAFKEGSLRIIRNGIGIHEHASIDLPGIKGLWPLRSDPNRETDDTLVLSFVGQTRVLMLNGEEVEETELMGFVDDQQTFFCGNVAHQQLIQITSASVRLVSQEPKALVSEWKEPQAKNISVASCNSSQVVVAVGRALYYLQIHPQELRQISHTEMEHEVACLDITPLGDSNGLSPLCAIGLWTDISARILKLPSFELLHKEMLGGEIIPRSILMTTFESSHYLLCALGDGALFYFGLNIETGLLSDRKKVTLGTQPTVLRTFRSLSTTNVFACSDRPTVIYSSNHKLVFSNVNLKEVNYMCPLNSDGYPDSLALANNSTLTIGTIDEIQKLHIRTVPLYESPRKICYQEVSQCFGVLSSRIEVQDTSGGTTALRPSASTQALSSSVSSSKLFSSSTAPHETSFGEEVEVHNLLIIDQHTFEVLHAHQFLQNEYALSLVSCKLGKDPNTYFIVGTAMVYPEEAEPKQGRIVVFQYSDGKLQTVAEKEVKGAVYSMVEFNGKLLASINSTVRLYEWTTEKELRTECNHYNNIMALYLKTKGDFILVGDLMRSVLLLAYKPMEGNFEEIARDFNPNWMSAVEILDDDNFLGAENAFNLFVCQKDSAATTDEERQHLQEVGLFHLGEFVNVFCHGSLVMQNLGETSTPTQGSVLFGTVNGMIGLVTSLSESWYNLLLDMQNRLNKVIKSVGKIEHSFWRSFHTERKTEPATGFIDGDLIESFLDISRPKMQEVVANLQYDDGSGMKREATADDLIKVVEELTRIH", "test": "Nluc-PAK1 luciferase quantitation of PAK1 expression", "type": "cell-based"}, "[11]": {"biological_target": "T1, PAK1", "test": "PAK1 degradation by immunoblot in MCF7 and OVCAR3 cells", "type": "cell-based"}, "[12]": {"settings": "cited from earlier work"}, "[13]": {"settings": "MCF7 and OVCAR3 cells, 24 hr treatment"}}}
{"smiles": "O=C1CCC(N2C(=O)c3cccc(NCCOCCOCCC(=O)N4CC[C@H](NC5=Nc6cc(F)ccc6N(CC(F)F)c6ccc(Cl)cc65)C4)c3C2=O)C(=O)N1", "note": "(stereo partly drawn) [BJG-05-014, 4-((2-(2-(3-((S)-3-((2-chloro-5-(2,2-difluoroethyl)-8-fluoro-5H-dibenzo[b,e][1,4]diazepin-11-yl)amino)pyrrolidin-1-yl)-3-oxopropoxy)ethoxy)ethyl)amino)-2-(2,6-dioxopiperidin-3-yl)isoindoline-1,3-dione]", "values": [{"measurement": "PAK1 inhibitory activity and selectivity of NVS-PAK1-1 conjugates", "setting": "[1]", "value": "retained PAK1 inhibitory activity and selectivity"}]}
{"smiles": "O=C1CCC(N2C(=O)c3cccc(NCCCCCNC(=O)N4CC[C@H](NC5=Nc6cc(F)ccc6N(CC(F)F)c6ccc(Cl)cc65)C4)c3C2=O)C(=O)N1", "note": "(stereo partly drawn) [BJG-05-027, (3S)-3-((2-chloro-5-(2,2-difluoroethyl)-8-fluoro-5H-dibenzo[b,e][1,4]diazepin-11-yl)amino)-N-(5-((2-(2,6-dioxopiperidin-3-yl)-1,3-dioxoisoindolin-4-yl)amino)pentyl)pyrrolidine-1-carboxamide]", "values": [{"measurement": "PAK1 inhibitory activity and selectivity of NVS-PAK1-1 conjugates", "setting": "[1]", "value": "retained PAK1 inhibitory activity and selectivity"}]}
{"smiles": "O=C1CCC(N2C(=O)c3cccc(NCCCCCCCCNC(=O)N4CC[C@H](NC5=Nc6cc(F)ccc6N(CC(F)F)c6ccc(Cl)cc65)C4)c3C2=O)C(=O)N1", "note": "(stereo partly drawn) [BJG-05-039, (3S)-3-((2-chloro-5-(2,2-difluoroethyl)-8-fluoro-5H-dibenzo[b,e][1,4]diazepin-11-yl)amino)-N-(8-((2-(2,6-dioxopiperidin-3-yl)-1,3-dioxoisoindolin-4-yl)amino)octyl)pyrrolidine-1-carboxamide]", "values": [{"measurement": "PAK1 degradation profile in Panc1 cells", "setting": "[2]", "value": "most promising profile"}, {"measurement": "PAK1 inhibitory activity and selectivity of NVS-PAK1-1 conjugates", "setting": "[1]", "value": "retained PAK1 inhibitory activity and selectivity"}, {"measurement": "downregulation of PAK1 in proteomic analysis", "setting": "[3]", "value": "significant downregulation of this kinase was not apparent"}, {"measurement": "downregulation of RNF166, Ikaros (IKZF1) and Aiolos (IKZF3)", "setting": "[3]", "value": "strongly downregulated"}, {"measurement": "anti-proliferative activity, OMM1", "setting": "[4]", "value": "did not show increased efficacy relative to NVS-PAK1-1"}, {"measurement": "EC50", "setting": "[5]", "value": 100, "unit": "nM"}, {"measurement": "IC50", "setting": "[6]", "value": "> 10000", "unit": "nM"}, {"measurement": "increase of selectivity over PAK2 relative to NVS-PAK-1", "setting": "[6]; Table S1", "value": "more than ten-fold"}, {"measurement": "EC50", "setting": "[7]", "value": 86, "unit": "nM"}, {"measurement": "phosphorylation of ERK", "setting": "[8]", "value": "inhibiting phosphorylation of ERK"}, {"measurement": "phosphorylation of MEK S298", "setting": "[8]", "value": "inhibited phosphorylation of MEK S298"}, {"measurement": "anti-proliferative activity, HEY-A8", "setting": "[9]", "value": "did not show increased efficacy relative to NVS-PAK1-1"}, {"measurement": "maximal loss of the PAK1 protein achieved", "setting": "[10]", "value": "≤ 70", "unit": "%"}, {"measurement": "reduction in PAK1 expression", "setting": "[10]; 10 nM, Nluc-PAK1 cells, 24 hr", "value": "approximately 70%"}, {"measurement": "reduction in PAK1 levels by immunoblot", "setting": "[11]; Figure 2A", "value": "~ 50%"}, {"measurement": "concentration at which diminished PAK1 degradation (hook effect) was observed", "setting": "[11]; [13]", "value": "≥ 1", "unit": "µM"}, {"measurement": "concentration of maximal PAK1 degradation", "setting": "[11]; [13]", "value": 10, "unit": "nM"}, {"measurement": "PAK1 degradation", "setting": "[11]; MCF7 and OVCAR3 cells, 24 hr treatment, immunoblot", "value": "induced degradation of PAK1"}, {"measurement": "time to partial degradation of PAK1", "setting": "[11]; MCF7 cells, 10 nM", "value": "≤ 4", "unit": "h"}, {"measurement": "PAK1 degradation on co-treatment with bortezomib (proteasome inhibitor)", "setting": "[11]; co-treatment with bortezomib", "value": "prevented PAK1 destabilization"}]}
{"smiles": "Cc1ccc(CO)cc1N(Cc1ccccc1C#N)c1nc(Nc2ccc(N3CCN(CCOCCOCCNc4cccc5c4C(=O)N(C4CCC(=O)NC4=O)C5=O)CC3)c(S(C)(=O)=O)c2)ncc1F", "note": "(centres unmarked) [BJG-05-093, 2-(((2-((4-(4-(2-(2-(2-((2-(2,6-dioxopiperidin-3-yl)-1,3-dioxoisoindolin-4-yl)amino)ethoxy)ethoxy)ethyl)piperazin-1-yl)-3-(methylsulfonyl)phenyl)amino)-5-fluoropyrimidin-4-yl)(5-(hydroxymethyl)-2-methylphenyl)amino)methyl)benzonitrile]", "values": [{"measurement": "inhibitor activity of linker conjugates of an ATP-competitive PAK1 inhibitor", "setting": "[1]; Table S1", "value": "retained inhibitor activity"}]}
{"smiles": "CC(C)NC(=O)N1CC[C@H](NC2=Nc3cc(F)ccc3N(CC(F)F)c3ccc(Cl)cc32)C1", "note": "[NVS-PAK1-1]", "values": [{"measurement": "EC50", "setting": "[5]", "value": 8900, "unit": "nM"}, {"measurement": "IC50", "setting": "[6]", "value": 824, "unit": "nM"}, {"measurement": "effect of combination with PAK shRNA on MCF7 cells", "setting": "[7]; 100 nM, MCF7 cells with PAK shRNA", "value": "lethal"}, {"measurement": "EC50", "setting": "[7]", "value": 11800, "unit": "nM"}, {"measurement": "phosphorylation of ERK", "setting": "[8]", "value": "no visible impact"}, {"measurement": "phosphorylation of MEK S298", "setting": "[8]", "value": "no visible impact"}, {"measurement": "in vivo half-life", "setting": "[12]", "value": "short in vivo half-life"}]}
{"smiles": "Nc1cccc2c1CN(C1CCC(=O)NC1=O)C2=O", "note": "(centres unmarked) [lenalidomide]", "values": [{"measurement": "anti-proliferative activity, OVCAR3", "setting": "[5]; MTT assay, 96 hr", "value": "lacked significant antiproliferative effects"}, {"measurement": "anti-proliferative activity, MCF7", "setting": "[7]; MTT assay, 96 hr", "value": "lacked significant antiproliferative effects"}]}
